Source: paper PMC3974725, “A Random Sequential Mechanism of Aminoglycoside Acetylation by Mycobacterium tuberculosis Eis Protein” (PLoS ONE, 2014)
Where two headings read alike, the source gives them in different places.

Legend:
MtEis [1] = biological target: T1, MtEis (Mycobacterium tuberculosis, UniProt P9WFK7); experiment: Steady-state acetyltransferase assays (DTNB, absorbance at 412 nm), bisubstrate kinetic analysis; type: biochemical
MtEis [2] = biological target: T1, MtEis; settings: cited from earlier work

T1 sequence (P9WFK7 whole entry, looked up): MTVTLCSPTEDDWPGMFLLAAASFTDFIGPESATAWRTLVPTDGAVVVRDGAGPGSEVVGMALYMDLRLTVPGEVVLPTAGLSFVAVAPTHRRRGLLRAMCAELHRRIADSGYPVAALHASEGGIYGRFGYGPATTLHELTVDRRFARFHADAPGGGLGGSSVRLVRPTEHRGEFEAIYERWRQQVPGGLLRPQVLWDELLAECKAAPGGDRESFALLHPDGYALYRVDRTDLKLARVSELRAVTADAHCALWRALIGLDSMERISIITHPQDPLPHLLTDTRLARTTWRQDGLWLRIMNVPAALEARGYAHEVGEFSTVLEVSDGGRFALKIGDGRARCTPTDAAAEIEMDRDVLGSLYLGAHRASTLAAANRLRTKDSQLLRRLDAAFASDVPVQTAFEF

| Molecule | k cat (microscopic rate constant of the acetylation step) (MtEis [1]; AG as substrate of MtEis, random sequential mechanism fit, Tris 50 mM, pH 8.0) | extent of acetylation by MtEis (MtEis [2]) | higher affinity for the AcCoA bound enzyme than KAN (MtEis [1]; NEO versus KAN, K d,AG(AcCoA•E)) | Kd (MtEis [1]; binding of AG to free enzyme, from thermodynamic cycle K d,AcCoA(E) K d,AG(AcCoA•E)/K d,AcCoA(AG•E), read-out: K d,AG(E)) | Kd (MtEis [1]; binding of AG to the AcCoA bound enzyme, simultaneous fit of KAN and NEO acetylation data, read-out: K d,AG(AcCoA•E)) | K d,AcCoA(E) lower than that for AcCoA binding to Eis from M. smegmatis (MtEis [1]; MtEis versus M. smegmatis Eis value of ref 6) | Kd (MtEis [1]; binding of AcCoA to free MtEis, read-out: K d,AcCoA(E)) | Kd (MtEis [1]; binding of AcCoA to the KAN bound enzyme, read-out: K d,AcCoA(AG•E)) | Kd (MtEis [1]; binding of AcCoA to the NEO bound enzyme, read-out: K d,AcCoA(AG•E)) |
| --- | --- | --- | --- | --- | --- | --- | --- | --- | --- |
| kanamycin A | 0.68 ± 0.15 s⁻¹ | di-acetylated |  |  |  |  |  |  |  |
| NC[C@@H]1O[C@H](O[C@H]2[C@@H](O)[C@H](O[C@@H]3[C@@H](O)[C@H](N)C[C@H](N)[C@H]3O[C@H]3O[C@H](CN)[C@@H](O)[C@H](O)[C@H]3N)O[C@@H]2CO)[C@H](N)[C@@H](O)[C@@H]1O [NEO, neomycin B] |  | tri-acetylated | approximately 3 fold | 22 ± 17 µM | 135 ± 53 µM |  |  |  |  |
| CC(=O)SCCNC(=O)CCNC(=O)[C@H](O)C(C)(C)COP(=O)(O)OP(=O)(O)OC[C@H]1O[C@@H](n2cnc3c(N)ncnc32)[C@H](O)[C@@H]1OP(=O)(O)O [AcCoA, acetyl coenzyme A] |  |  |  |  |  | about 4 fold | 18 ± 14 µM | 45 ± 37 µM | 111 ± 62 µM |
